The values below come from patent EP0868915A1, “An anti-spasmodic and antiinflammatory composition containing a NSAID, pentifenone and fenpiverinium” (PANACEA BIOTEC LIMITED, priority 1997, dated 1998).

The subject of this test is distal portion of colon of rat. Briefly: Inhibition of acetylcholine-induced contraction of isolated rat colon (antispasmodic activity). As to conditions: for Percentage inhibition of Ach (100 ng/ml) -Induced contraction After Diclofenac Na: in presence of Diclofenac Sodium 20µ/ml; for inhibition at 0.01 µg/mL: Pitofenone Hcl dose 10 ng/ml; for inhibition at 0.02 µg/mL: Pitofenone Hcl dose 20 ng/ml; for inhibition at 0.04 µg/mL: Pitofenone Hcl dose 40 ng/ml; for inhibition at 0.08 µg/mL: Pitofenone Hcl dose 80 ng/ml. As to the method:
In order to see the effect of NSAID on the Antispasmodic activity of Pitifenone hydrochloride and Fenpiverinium bromide an experiment was conducted on standard isolated tissues of experimental animal. The tissue chosen for the experiment was the distal portion of colon of rat. The NSAID selected for the experiment was Diclofenac Sodium.
The percentage inhibition of Acetylcholine - induced contraction (at dosage level of 100ng/m) was studied with varied concentration of Pitofenone Hydrochloride in the dose range of 10-80 nano gm/ml.
The percentage inhibition of Acetylcholine -induced contraction (at dosage level of 100ng/ml) was studied with varied concentration of Fenpiverinium bromide in the dose range of 0.5-2 ng/ml.
The experiment was then conducted at the same dose level of Acetylcholine and Fenpiverinium bromide but in the presence of Diclofenac Sodium (dose level 20µ gm/ml). The data obtained in the experiment is collected in Table -2.

The mark [1] stands for this setting: Fenpiverinium Bromide dose 0.5 (ng/ml).
[2] abbreviates: Fenpiverinium Bromide dose 1.0 (ng/ml).
Setting [3] is: Fenpiverinium Bromide dose 2.0 (ng/ml).
Where [4] appears, read: in presence of Diclofenac Sodium 20 µg/ml, read-out: Percentage inhibition of Ach (100 ng/ml) -induced contraction After Diclofenac Na.
Setting [5] is: read-out: Percentage inhibition of Ach (100 ng/ml) -induced contraction Before Diclofenac Na.

Molecules are shown by their SMILES. Counter-ions that a name gives are not always drawn. Like-named read-outs stand apart in the source and are kept apart here.

Consider `O=C(O)Cc1ccccc1Nc1c(Cl)cccc1Cl` [Diclofenac, Diclofenac Sodium], for which, under “Diclofenac Sodium 20 µg/ml”, the “action with Fenpiverinium bromide as an Antispasmodic” value is on record as “synergistic (potentiating) action” and the “action with Pitofenone Hydrochloride as an Antispasmodic” value is listed as “synergistic (potentiating) action”.

For `C[N+]1(CCC(C(N)=O)(c2ccccc2)c2ccccc2)CCCCC1` [Fenpiverinium Bromide, Fenpiverinium bromide], the “Percentage inhibition of Ach (100 ng/ml) -Induced contraction Before Diclofenac Na” value by setting is: under setting [1], 43.8%; under setting [2], 78.7%; under setting [3], 100%. Moreover, the “Percentage inhibition of Ach (100 ng/ml) -Induced contraction After Diclofenac Na” value stood at 100% under setting [1], 100% under setting [2] and 100% under setting [3].

Regarding `COC(=O)c1ccccc1C(=O)c1ccc(OCCN2CCCCC2)cc1` [Pitofenone Hcl, Pitofenone Hydrochloride], under setting [4], the inhibition at 0.01 µg/mL was found to be 100%, the inhibition at 0.02 µg/mL came out at 100%, the inhibition at 0.04 µg/mL was 100% and the inhibition at 0.08 µg/mL was 100%. Besides, under setting [5], the inhibition at 0.01 µg/mL was found to be 0%, the inhibition at 0.02 µg/mL came to 0%, the inhibition at 0.04 µg/mL was 0% and the inhibition at 0.08 µg/mL stood at 20.2%.
